The source of these data is patent publication US20260091026A1, “METHODS OF TREATING INFLAMMATORY DISEASES” (INTERLINE THERAPEUTICS, INC., priority 2023, published 2026).

Where two headings read alike, the source gives them in different places.

Assay [1] concerns the target T1, GST-RIPK2 fusion protein (human RIPK2 amino acids 1-310) (Homo sapiens, UniProt O43353).
T1 construct: made in house; host or cells: baculovirus-infected Sf9 cells
The experiment in a line: RIPK2 binding competition assay (TR-FRET, Tracer 199). To be noted: displacement of Tracer 199 (10 nM), 45 min at 22° C. The text has this:
The ability of selected compounds of Formulas (I) and (II) to inhibit the binding of an Alexa647-labelled ATP-competitive kinase inhibitor to a GST-RIPK2 fusion protein was quantified employing the TR-FRET-based RIPK2 binding competition assay as described in the following paragraphs.
Recombinant fusion protein of N-terminal Glutathione-S-Transferase (GST) and a fragment of human RIPK2 (amino acids 1-310 of accession number 043353), expressed in baculovirus infected Sf9 cells, purified via glutathione affinity chromatography, was used as GST-RIPK2 fusion protein. Tracer 199 from Life Technologies (catalogue no. PR9115B) was used as Alexa647-labelled ATP-competitive kinase inhibitor.
For the assay, 50 nL of a 100-fold concentrated solution of each test compound in DMSO was pipetted into either a black low volume 384-well microtiter plate or a black 1536-well microtiter plate (both Greiner Bio-One, Frickenhausen, Germany), 3 μL solution of Tracer 199 (16.7 nM=>final concentration in 5 μL assay volume is 10 nM) in aqueous assay buffer (25 mM Tris/HCl pH 7.5, 10 mM magnesium chloride (MgCl2), 5 mM β-glycerophosphate, 2.5 mM dithiothreitol (DTT), 0.5 mM ethylene glycol-bis(2-aminoethylether)-N,N,N′,N′-tetraacetic acid (EGTA), 0.5 mM sodium ortho-vanadate, 0.01% (w/v) bovine serum albumin (BSA), 0.005% (w/v) Pluronic F-127 (Sigma)) were added. Then the binding competition was started by the addition of 2 μL of a solution of the GST-RIPK2 fusion protein (2.5 nM=>final conc. in the 5 μL assay volume is 1 nM) and of Anti-GST-Tb (1.25 nM=>final conc. in the 5 μL assay volume is 0.5 nM), a Lumi4®—Tb cryptate-conjugated anti-GST antibody from PerkinElmer (catalogue no 61GSTTAH), in assay buffer.
The resulting mixture was incubated 45 min at 22° C. to allow the formation of a complex between the Tracer 199, the fusion protein and Anti-GST-Tb. Subsequently, the amount of this complex was evaluated by measurement of the resonance energy transfer from the Tb-cryptate to the Tracer 199. Therefore, the fluorescence emissions at 620 nm and 665 nm after excitation at 337 nm were measured in a TR-FRET reader, e.g. a Pherastar FS(BMG Labtechnologies, Offenburg, Germany) or a Viewlux (PerkinElmer). The ratio of the emissions at 665 nm and at 620 nm was taken as the measure of the amount of the complex. The data were normalized (assay reaction without inhibitor=0% activity, all other assay components but no GST-RIPK2 fusion protein=−100% activity).

A further assay has as its target T2, RIPK2 (KD)/XIAP (BIR2) (Homo sapiens, UniProt O43353).
T2 construct: made in house; host or cells: baculovirus-infected Sf9 cells
Nature of the assay: RIPK2-XIAP binding competition PPI assay (TR-FRET). The conditions noted are these: for PPI Amax / Emax: 50 nM of GSK583 = -100% activity; for IC50: GST-RIPK2 / His-XIAP (BIR2)-avi, 120 min at 23° C.; for Emax: read-out: PPI Amax. The method in brief:
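TR-FRET competition between GST-RIPK2 (aa 1-310, 1 nM) and His-XIAP BIR2-avi (aa 152-231, 25 nM), both Sf9-expressed, detected with anti-His-XL665 and anti-GST-Tb in Tris pH 7.5 buffer with MgCl2, DTT and vanadate. Incubation was 120 min at 23 °C; the 665/520 nm ratio was normalized to no inhibitor (0%) and 50 nM GSK583 (−100%).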
Background: In TR-FRET formats the signal depends on donor and acceptor labels being close together.

In assay [2] the test system is THP1-Dual cells, NF-κB pathway (SEAP). Nature of the assay: THP-1 Dual cell SEAP assay (L18-MDP stimulated). In kind it is cell-based. To be noted: 10 ng/mL L18-MDP, 20-24 h, SEAP readout, read-out: IFNγ THP1 IC50. The method in brief: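 About 25,000 THP1-Dual cells per well were preincubated 30 min with serially diluted compound, then stimulated overnight (20-24 h, 37 °C) with 10 ng/mL L18-MDP (final). NF-κB-driven SEAP in supernatant was read with QUANTI-Blue at OD 620-655 nm after 2 h; % inhibition versus DMSO/L18-MDP wells was fitted by non-linear regression to give IC50.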

T1 sequence (O43353 1-310): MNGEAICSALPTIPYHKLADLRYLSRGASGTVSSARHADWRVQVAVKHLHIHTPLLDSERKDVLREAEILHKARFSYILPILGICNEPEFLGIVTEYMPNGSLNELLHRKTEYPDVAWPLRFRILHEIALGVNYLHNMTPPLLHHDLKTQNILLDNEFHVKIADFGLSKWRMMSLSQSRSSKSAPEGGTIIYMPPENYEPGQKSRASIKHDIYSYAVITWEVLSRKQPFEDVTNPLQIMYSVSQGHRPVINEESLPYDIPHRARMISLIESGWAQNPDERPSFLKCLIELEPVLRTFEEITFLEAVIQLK
T2 sequence (O43353 1-310): as above

The term IC50 denotes the concentration that gives 50% inhibition. For `COc1cc2ncc(-n3cc(NC(=O)N4CCCC4c4ccccc4)cn3)n2cc1S(=O)(=O)C(C)(C)C` (single isomer, unassigned) [Example 178, (R)- or (S)-N-(1-(6-(tert-butylsulfonyl)-7-methoxyimidazo[1,2-a]pyridin-3-yl)-1H-pyrazol-4-yl)-2-phenylpyrrolidine-1-carboxamide], the IC50 was over 1 µM in assay [1], over 1 µM at RIPK2 (KD)/XIAP (BIR2) and over 2.5 µM in assay [2] (Homo sapiens). Besides, the “PPI Amax” value at RIPK2 (KD)/XIAP (BIR2) is recorded as “C (Amax of 55%>C>30)”.

Take `COc1cc2ncc(-n3cc(NC(=O)N4CCCC4c4ccccc4)cn3)n2cc1S(=O)(=O)C(C)(C)C` (single isomer, unassigned) [Example 179, (S)- or (R)-N-(1-(6-(tert-butylsulfonyl)-7-methoxyimidazo[1,2-a]pyridin-3-yl)-1H-pyrazol-4-yl)-2-phenylpyrrolidine-1-carboxamide]: the IC50 is 0.5 to 1 µM in assay [1], over 1 µM at RIPK2 (KD)/XIAP (BIR2) and over 2.5 µM in assay [2]. Also, on RIPK2 (KD)/XIAP (BIR2), the “PPI Amax” value is reported as “A (Amax of ≥80%)”.

For `COc1cc2ncc(-n3cc(N4CCC(c5ccccc5)C4=O)cn3)n2cc1S(=O)(=O)C(C)(C)C` (single isomer, unassigned) [Example 182, (R)- or (S)-1-(1-(6-(tert-butylsulfonyl)-7-methoxyimidazo[1,2-a]pyridin-3-yl)-1H-pyrazol-4-yl)-3-phenylpyrrolidin-2-one], the IC50 in assay [1] was over 1 µM; at RIPK2 (KD)/XIAP (BIR2), over 1 µM; in assay [2] (Homo sapiens) it was over 2.5 µM. Further, the “PPI Amax” value on RIPK2 (KD)/XIAP (BIR2) is listed as “C (Amax of 55%>C>30)”.

`COc1cc2ncc(-n3cc(N4CCC(c5ccccc5)C4=O)cn3)n2cc1S(=O)(=O)C(C)(C)C` (single isomer, unassigned) [Example 183, (S)- or (R)-1-(1-(6-(tert-butylsulfonyl)-7-methoxy-imidazo[1,2-a]pyridin-3-yl)-1H-pyrazol-4-yl)-3-phenylpyrrolidin-2-one]: the results for the IC50 (in assay [1]; at RIPK2 (KD)/XIAP (BIR2); in assay [2]) were over 1 µM, over 1 µM and over 2.5 µM, respectively. Moreover, the “PPI Amax” value at RIPK2 (KD)/XIAP (BIR2) is “A (Amax of ≥80%)”.

With `COc1cc2ncc(-n3cc(C(=O)NCc4ccccc4)cn3)n2cc1S(=O)(=O)C(C)(C)C` [Example 1, N-benzyl-1-(6-(tert-butylsulfonyl)-7-methoxyimidazo[1,2-a]pyridin-3-yl)-1H-pyrazole-4-carboxamide], the values for the IC50 (in assay [1]; at RIPK2 (KD)/XIAP (BIR2); in assay [2] (Homo sapiens)) were 0.2 to 0.5 µM, 0.1 to 1 µM and over 2.5 µM, respectively. The Emax at RIPK2 (KD)/XIAP (BIR2) is at least 80%.

In the case of `COc1cc2ncc(-n3cc(C(=O)NCc4ccccc4Cl)cn3)n2cc1S(=O)(=O)C(C)(C)C` [Example 2, 1-(6-(tert-butylsulfonyl)-7-methoxyimidazo [1,2-a]pyridin-3-yl)-N-(2-chlorobenzyl)-1H-pyrazole-4-carboxamide], the values for the IC50 (in assay [1]; on RIPK2 (KD)/XIAP (BIR2); in assay [2] (Homo sapiens)) were 0.2 to 0.5 µM, 0.1 to 1 µM and over 2.5 µM, respectively. On RIPK2 (KD)/XIAP (BIR2), the Emax was at least 80%.

Turning to `COc1cc2ncc(-n3cc(C(=O)NCc4c(F)cc(F)cc4F)cn3)n2cc1S(=O)(=O)C(C)(C)C` [Example 3, 1-(6-(tert-butylsulfonyl)-7-methoxyimidazo [1,2-a]pyridin-3-yl)-N-(2,4,6-trifluorobenzyl)-1H-pyrazole-4-carboxamide], the figures for the IC50 (in assay [1]; at RIPK2 (KD)/XIAP (BIR2); in assay [2] (Homo sapiens)) were over 1 µM, over 1 µM and over 2.5 µM, respectively. The Emax on RIPK2 (KD)/XIAP (BIR2) was 30 to 55%.

Regarding `COc1cc2ncc(-c3cc(C(=O)NCc4ccccc4Cl)n(C)n3)n2cc1S(=O)(=O)C(C)(C)C` [Example 4, 3-(6-(tert-butylsulfonyl)-7-methoxyimidazo[1,2-a]pyridin-3-yl)-N-(2-chlorobenzyl)-1-methyl-1H-pyrazole-5-carboxamide], the IC50 in assay [1] is under 0.2 µM; on RIPK2 (KD)/XIAP (BIR2) it was 0.01 to 0.1 µM; in assay [2] (Homo sapiens), 0.5 to 2.5 µM. Also, on RIPK2 (KD)/XIAP (BIR2), the Emax is at least 80%.

Consider `COc1cc2ncc(-c3cc(C(=O)N(C)C)n(C)n3)n2cc1S(=O)(=O)C(C)(C)C` [Example 5, 3-(6-(tert-butylsulfonyl)-7-methoxyimidazo[1,2-a]pyridin-3-yl)-N,N,1-trimethyl-1H-pyrazole-5-carboxamide], for which the IC50 is under 0.2 µM in assay [1], over 1 µM on RIPK2 (KD)/XIAP (BIR2) and over 2.5 µM in assay [2] (Homo sapiens). In addition, on RIPK2 (KD)/XIAP (BIR2), the Emax is at most 30%.

Turning to `COc1cc2ncc(-c3cc(C(=O)NC4CCCCC4)n(C)n3)n2cc1S(=O)(=O)C(C)(C)C` [Example 6, 3-(6-(tert-butylsulfonyl)-7-methoxyimidazo[1,2-a]pyridin-3-yl)-N-cyclohexyl-1-methyl-1H-pyrazole-5-carboxamide], the values for the IC50 (in assay [1]; at RIPK2 (KD)/XIAP (BIR2); in assay [2] (Homo sapiens)) were over 1 µM, over 1 µM and over 2.5 µM, respectively. Moreover, on RIPK2 (KD)/XIAP (BIR2), the Emax was at least 80%.

For `COc1cc2ncc(-n3cc(NC(=O)Cc4ccccc4Cl)cn3)n2cc1S(=O)(=O)C(C)(C)C` [Example 152, N-(1-(6-(tert-butylsulfonyl)-7-methoxyimidazo[1,2-a]pyridin-3-yl)-1H-pyrazol-4-yl)-2-(2-chlorophenyl)acetamide], the IC50 in assay [1] is under 0.2 µM; on RIPK2 (KD)/XIAP (BIR2), 0.1 to 1 µM; in assay [2] (Homo sapiens), over 2.5 µM. Moreover, the Emax on RIPK2 (KD)/XIAP (BIR2) was at least 80%.

For the compound `COc1cc2ncc(-n3cc(NC(=O)OC(C)(C)C)cn3)n2cc1SC(C)(C)C` [Example 153, tert-butyl (1-(6-(tert-butylthio)-7-methoxyimidazo[1,2-a]pyridin-3-yl)-1H-pyrazol-4-yl)carbamate], the IC50 was 0.2 to 0.5 µM in assay [1], over 1 µM on RIPK2 (KD)/XIAP (BIR2) and over 2.5 µM in assay [2] (Homo sapiens). Further, the Emax on RIPK2 (KD)/XIAP (BIR2) is at least 80%.

For the compound `COc1cc2ncc(-n3cc(NC(=O)OC(C)(C)C)cn3)n2cc1S(=O)(=O)C(C)(C)C` [Example 154, tert-butyl (1-(6-(tert-butylsulfonyl)-7-methoxyimidazo[1,2-a]pyridin-3-yl)-1H-pyrazol-4-yl)carbamate], the IC50 in assay [1] is 0.5 to 1 µM; on RIPK2 (KD)/XIAP (BIR2) it was over 1 µM; in assay [2] (Homo sapiens), over 2.5 µM. Also, the Emax at RIPK2 (KD)/XIAP (BIR2) is at least 80%.

With `COc1cc2ncc(-n3cc(NC(C)=O)cn3)n2cc1S(=O)(=O)C(C)(C)C` [Example 155, N-(1-(6-(tert-butylsulfonyl)-7-methoxyimidazo[1,2-a]pyridin-3-yl)-1H-pyrazol-4-yl)acetamide], the IC50 is over 1 µM in assay [1], over 1 µM at RIPK2 (KD)/XIAP (BIR2) and over 2.5 µM in assay [2] (Homo sapiens). The Emax on RIPK2 (KD)/XIAP (BIR2) was at most 30%.

For the compound `COc1cc2ncc(-n3cc(NC(=O)Cc4cccc(F)c4Cl)cn3)n2cc1S(=O)(=O)C(C)(C)C` [Example 156, N-(1-(6-(tert-butylsulfonyl)-7-methoxyimidazo[1,2-a]pyridin-3-yl)-1H-pyrazol-4-yl)-2-(2-chloro-3-fluorophenyl)acetamide], the IC50 in assay [1] was 0.5 to 1 µM; at RIPK2 (KD)/XIAP (BIR2), over 1 µM; in assay [2] (Homo sapiens), over 2.5 µM. On RIPK2 (KD)/XIAP (BIR2), the Emax is at least 80%.

As for `COc1cc2ncc(-n3cc(NC(=O)Cc4cc(F)ccc4Cl)cn3)n2cc1S(=O)(=O)C(C)(C)C` [Example 157, N-(1-(6-(tert-butylsulfonyl)-7-methoxyimidazo[1,2-a]pyridin-3-yl)-1H-pyrazol-4-yl)-2-(2-chloro-5-fluorophenyl)acetamide], the IC50 is 0.5 to 1 µM in assay [1], over 1 µM at RIPK2 (KD)/XIAP (BIR2) and over 2.5 µM in assay [2] (Homo sapiens). At RIPK2 (KD)/XIAP (BIR2), the Emax is at least 80%.
